Broadly, the melting point is the temperature, or range, at which the solid turns liquid.

Data set [1] relates to human neonatal keratinocytes. The data set can be described thus: Stability evaluated on keratinocyte cultures. Type of data set: in vitro ADME. As to conditions: over 24 hours. The protocol: (§1) The stability on keratinocyte cultures is evaluated using human neonatal keratinocytes (Cell'N Tech) cultured in a 75 cm^2 flask and detached at 90-100% of confluence with vegetable trypsin (trypLE GIBCO). The compound of formula (I) was tested at 2 μM in the medium CNT-057 (Cell'N Tech) supplemented with 0.1% pluronic acid in 24-well plates. The final DMSO concentration is 0.1%. Degradation kinetics are performed with a Tecan EVO robot over 24 hours. The samples taken are then assayed by LC/MS/MS (Micromass) in comparison with a calibration range of the test product, prepared under the same conditions as the samples (⅓ culture medium and ⅔ methanol). The chromatographic conditions are optimized for each product. An assay of the appearance of metronidazole is also performed using these same samples.

Data set [2] is described as follows: Stability evaluated on keratinocyte cultures. Type of data set: in vitro ADME. The conditions noted are these: human, human neonatal keratinocyte cultures; keratinocyte cultures; 2 μM in medium CNT-057 with 0.1% pluronic acid, 0.1% DMSO; degradation kinetics over 24 hours; LC/MS/MS; read-out: half-life time (t1/2) (converted). As to the method:
as §1

“Also recorded” adds a separate entry of the source.

With `COc1ccc2c(c1)c(CC(=O)OCCn1c([N+](=O)[O-])cnc1C)c(C)n2C(=O)c1ccc(Cl)cc1` [metronidazole ester with indomethacin], in data set [1], the “stability / hydrolysis of the ester on keratinocyte cultures (in words)” value (“stability / hydrolysis of the ester” for short) was “stable in the presence of keratinocytes; also recorded: do not become hydrolysed”.
On to `Cc1ncc([N+](=O)[O-])n1CCOC(=O)c1cc(-c2ccc(F)cc2F)ccc1O` [metronidazole ester with diflunisal], for which the “stability / hydrolysis of the ester” value in data set [1] is given as “stable in the presence of keratinocytes; also recorded: do not become hydrolysed”.
On to `Cc1ncc([N+](=O)[O-])n1CCOC(=O)c1cccnc1Nc1cccc(C(F)(F)F)c1` [metronidazole ester with niflumic acid], for which the “stability / hydrolysis of the ester” value in data set [1] is on record as “stable in the presence of keratinocytes; also recorded: do not become hydrolysed”.
Turning to `Cc1ncc([N+](=O)[O-])n1CCOC(=O)C1CCn2c(C(=O)c3ccccc3)ccc21` (stereo not shown) [metronidazole ester with ketorolac], the “stability / hydrolysis of the ester” value in data set [1] is reported as “stable in the presence of keratinocytes; also recorded: do not become hydrolysed”.
`Cc1ncc([N+](=O)[O-])n1CCOC(=O)Cc1ccccc1Nc1c(Cl)cccc1Cl` [compound of formula (I), 2-(2-methyl-5-nitroimidazol-1-yl)ethyl [2-(2,6-dichlorophenylamino)phenyl]acetate] had a melting point of 122 to 124 °C. Further, the half-life at 2 μM in data set [2] was 8 h. In addition, the “stability / hydrolysis of the ester” value in data set [1] is on record as “specifically cleaved in keratinocytes”.
